Measured values taken from ChEMBL document CHEMBL3124843, “Synthesis, cytostatic, antimicrobial, and anti-HCV activity of 6-substituted 7-(het)aryl-7-deazapurine ribonucleosides” (J Med Chem, 2014).

System: Mycobacterium tuberculosis
Assay: Antimycobacterial activity against Mycobacterium bovis BCG after 5 days by MTT assay
Assay type: functional, organism-based
Conditions: variant bovis BCG, 120 h

SMILES | IC50 [µM]
CSc1ncnc2c1c(-c1ccco1)cn2[C@@H]1O[C@H](CO)[C@@H](O)[C@H]1O | > 100
COc1ncnc2c1c(-c1ccoc1)cn2[C@@H]1O[C@H](CO)[C@@H](O)[C@H]1O | > 100
O=c1[nH]cnc2c1c(-c1ccco1)cn2[C@@H]1O[C@H](CO)[C@@H](O)[C@H]1O | > 100
COc1nc(N)nc2c1c(-c1ccsc1)cn2[C@@H]1O[C@H](CO)[C@@H](O)[C@H]1O | > 100
Nc1nc(N)c2c(-c3ccco3)cn([C@@H]3O[C@H](CO)[C@@H](O)[C@H]3O)c2n1 | 84
Nc1nc2c(c(-c3cccs3)cn2[C@@H]2O[C@H](CO)[C@@H](O)[C@H]2O)c(=O)[nH]1 | > 100
CNc1ncnc2c1c(I)cn2[C@@H]1O[C@H](CO)[C@@H](O)[C@H]1O | 99.9
Nc1nc2c(c(-c3ccoc3)cn2[C@@H]2O[C@H](CO)[C@@H](O)[C@H]2O)c(=O)[nH]1 | > 100
COc1nc(N)nc2c1c(-c1ccccc1)cn2[C@@H]1O[C@H](CO)[C@@H](O)[C@H]1O | > 100
COc1ncnc2c1c(-c1cccs1)cn2[C@@H]1O[C@H](CO)[C@@H](O)[C@H]1O | > 100
Cc1ncnc2c1c(-c1ccsc1)cn2[C@@H]1O[C@H](CO)[C@@H](O)[C@H]1O | 18.5
COc1ncnc2c1c(I)cn2[C@@H]1O[C@H](CO)[C@@H](O)[C@H]1O | > 100
CSc1ncnc2c1c(-c1ccsc1)cn2[C@@H]1O[C@H](CO)[C@@H](O)[C@H]1O | 98.6
CNc1ncnc2c1c(-c1ccccc1)cn2[C@@H]1O[C@H](CO)[C@@H](O)[C@H]1O | > 100
Cc1ncnc2c1c(-c1ccco1)cn2[C@@H]1O[C@H](CO)[C@@H](O)[C@H]1O | 38.9
Cc1nc(N)c2ccn([C@@H]3O[C@H](CO)[C@@H](O)[C@H]3O)c2n1 | > 100
COc1nc(N)nc2c1c(-c1ccco1)cn2[C@@H]1O[C@H](CO)[C@@H](O)[C@H]1O | > 100
CSc1ncnc2c1c(-c1cccs1)cn2[C@@H]1O[C@H](CO)[C@@H](O)[C@H]1O | > 100
Nc1nc2c(c(-c3ccsc3)cn2[C@@H]2O[C@H](CO)[C@@H](O)[C@H]2O)c(=O)[nH]1 | > 100
CN(C)c1ncnc2c1c(-c1cc3ccccc3o1)cn2[C@@H]1O[C@H](CO)[C@@H](O)[C@H]1O | > 100
Cc1ncnc2c1c(I)cn2[C@@H]1O[C@H](CO)[C@@H](O)[C@H]1O | 51.4

SMILES | IC50 [µM]
COc1ncnc2c1c(-c1cc3ccccc3o1)cn2[C@@H]1O[C@H](CO)[C@@H](O)[C@H]1O | 73.5
Nc1ncnc2c1c(-c1ccco1)cn2[C@@H]1O[C@H](CO)[C@@H](O)[C@H]1O | 17.4
C#Cc1cn([C@@H]2O[C@H](CO)[C@@H](O)[C@H]2O)c2ncnc(C)c12 | 42.9
COc1ncnc2c1c(-c1ccsc1)cn2[C@@H]1O[C@H](CO)[C@@H](O)[C@H]1O | > 100
Nc1nc(N)c2c(-c3cccs3)cn([C@@H]3O[C@H](CO)[C@@H](O)[C@H]3O)c2n1 | 2.44
CN(C)c1ncnc2c1c(-c1ccccc1)cn2[C@@H]1O[C@H](CO)[C@@H](O)[C@H]1O | > 100
Cc1nc(N)c2c(-c3cc4ccccc4o3)cn([C@@H]3O[C@H](CO)[C@@H](O)[C@H]3O)c2n1 | > 100
C#Cc1cn([C@@H]2O[C@H](CO)[C@@H](O)[C@H]2O)c2ncnc(OC)c12 | > 100
Nc1nc(N)c2c(-c3ccoc3)cn([C@@H]3O[C@H](CO)[C@@H](O)[C@H]3O)c2n1 | 71.5
Cc1ncnc2c1ccn2[C@@H]1O[C@H](CO)[C@@H](O)[C@H]1O | 0.3
COc1ncnc2c1ccn2[C@@H]1O[C@H](CO)[C@@H](O)[C@H]1O | > 100
Cc1nc(N)c2c(-c3ccco3)cn([C@@H]3O[C@H](CO)[C@@H](O)[C@H]3O)c2n1 | > 100
Nc1nc(N)c2c(-c3ccsc3)cn([C@@H]3O[C@H](CO)[C@@H](O)[C@H]3O)c2n1 | > 100
Cc1nc(N)c2c(-c3ccccc3)cn([C@@H]3O[C@H](CO)[C@@H](O)[C@H]3O)c2n1 | > 100
Cc1nc(N)c2c(-c3ccsc3)cn([C@@H]3O[C@H](CO)[C@@H](O)[C@H]3O)c2n1 | > 100
CN(C)c1ncnc2c1c(I)cn2[C@@H]1O[C@H](CO)[C@@H](O)[C@H]1O | > 100
O=c1[nH]cnc2c1c(-c1ccoc1)cn2[C@@H]1O[C@H](CO)[C@@H](O)[C@H]1O | > 100
Cc1nc(N)c2c(-c3cccs3)cn([C@@H]3O[C@H](CO)[C@@H](O)[C@H]3O)c2n1 | 82.7
CN(C)c1ncnc2c1c(-c1ccco1)cn2[C@@H]1O[C@H](CO)[C@@H](O)[C@H]1O | > 100
Nc1nc2c(c(-c3ccco3)cn2[C@@H]2O[C@H](CO)[C@@H](O)[C@H]2O)c(=O)[nH]1 | > 100
COc1nc(N)nc2c1c(-c1cccs1)cn2[C@@H]1O[C@H](CO)[C@@H](O)[C@H]1O | > 100

SMILES | IC50 [µM]
Cc1nc(N)c2c(-c3ccoc3)cn([C@@H]3O[C@H](CO)[C@@H](O)[C@H]3O)c2n1 | > 100
O=c1[nH]cnc2c1c(-c1cccs1)cn2[C@@H]1O[C@H](CO)[C@@H](O)[C@H]1O | > 100
Nc1ncnc2c1c(-c1cccs1)cn2[C@@H]1O[C@H](CO)[C@@H](O)[C@H]1O | 4.73
CSc1ncnc2c1ccn2[C@@H]1O[C@H](CO)[C@@H](O)[C@H]1O | 96.8
CSc1ncnc2c1c(-c1cc3ccccc3o1)cn2[C@@H]1O[C@H](CO)[C@@H](O)[C@H]1O | > 100
CNc1ncnc2c1c(-c1ccco1)cn2[C@@H]1O[C@H](CO)[C@@H](O)[C@H]1O | > 100
CNc1ncnc2c1ccn2[C@@H]1O[C@H](CO)[C@@H](O)[C@H]1O | 87.1
COc1ncnc2c1c(-c1ccco1)cn2[C@@H]1O[C@H](CO)[C@@H](O)[C@H]1O | > 100
O=c1[nH]cnc2c1c(-c1cc3ccccc3o1)cn2[C@@H]1O[C@H](CO)[C@@H](O)[C@H]1O | > 100
Cc1ncnc2c1c(Br)cn2[C@@H]1O[C@H](CO)[C@@H](O)[C@H]1O | 20.8
CN(C)c1ncnc2c1c(-c1cccs1)cn2[C@@H]1O[C@H](CO)[C@@H](O)[C@H]1O | > 100
Nc1nc(N)c2c(-c3cc4ccccc4o3)cn([C@@H]3O[C@H](CO)[C@@H](O)[C@H]3O)c2n1 | 24.6
CNc1ncnc2c1c(-c1ccsc1)cn2[C@@H]1O[C@H](CO)[C@@H](O)[C@H]1O | > 100
COc1nc(N)nc2c1c(-c1ccoc1)cn2[C@@H]1O[C@H](CO)[C@@H](O)[C@H]1O | > 100
CNc1ncnc2c1c(-c1ccoc1)cn2[C@@H]1O[C@H](CO)[C@@H](O)[C@H]1O | > 100
O=c1[nH]cnc2c1c(-c1ccsc1)cn2[C@@H]1O[C@H](CO)[C@@H](O)[C@H]1O | > 100
CN(C)c1ncnc2c1ccn2[C@@H]1O[C@H](CO)[C@@H](O)[C@H]1O | > 100
Nc1nc2c(c(-c3ccccc3)cn2[C@@H]2O[C@H](CO)[C@@H](O)[C@H]2O)c(=O)[nH]1 | > 100
C#Cc1cn([C@@H]2O[C@H](CO)[C@@H](O)[C@H]2O)c2ncnc(N(C)C)c12 | > 100
CSc1ncnc2c1c(-c1ccoc1)cn2[C@@H]1O[C@H](CO)[C@@H](O)[C@H]1O | > 100
CNc1ncnc2c1c(-c1cccs1)cn2[C@@H]1O[C@H](CO)[C@@H](O)[C@H]1O | > 100

SMILES | IC50 [µM]
C#Cc1cn([C@@H]2O[C@H](CO)[C@@H](O)[C@H]2O)c2ncnc(SC)c12 | > 100
Nc1nc2c(c(-c3cc4ccccc4o3)cn2[C@@H]2O[C@H](CO)[C@@H](O)[C@H]2O)c(=O)[nH]1 | > 100
COc1nc(N)nc2c1c(-c1cc3ccccc3o1)cn2[C@@H]1O[C@H](CO)[C@@H](O)[C@H]1O | > 100
C#Cc1cn([C@@H]2O[C@H](CO)[C@@H](O)[C@H]2O)c2nc(N)nc(OC)c12 | > 100
COc1ncnc2c1c(-c1ccccc1)cn2[C@@H]1O[C@H](CO)[C@@H](O)[C@H]1O | > 100
O=c1[nH]cnc2c1c(-c1ccccc1)cn2[C@@H]1O[C@H](CO)[C@@H](O)[C@H]1O | > 100
Cc1nc(N)c2c(I)cn([C@@H]3O[C@H](CO)[C@@H](O)[C@H]3O)c2n1 | > 100
Cc1ncnc2c1c(-c1ccoc1)cn2[C@@H]1O[C@H](CO)[C@@H](O)[C@H]1O | 9.3
Cc1ncnc2c1c(-c1cc3ccccc3o1)cn2[C@@H]1O[C@H](CO)[C@@H](O)[C@H]1O | 2.1
CN(C)c1ncnc2c1c(-c1ccsc1)cn2[C@@H]1O[C@H](CO)[C@@H](O)[C@H]1O | > 100
CN(C)c1ncnc2c1c(-c1ccoc1)cn2[C@@H]1O[C@H](CO)[C@@H](O)[C@H]1O | > 100
C#Cc1cn([C@@H]2O[C@H](CO)[C@@H](O)[C@H]2O)c2ncnc(NC)c12 | > 100
CNc1ncnc2c1c(-c1cc3ccccc3o1)cn2[C@@H]1O[C@H](CO)[C@@H](O)[C@H]1O | > 100
Cc1ncnc2c1c(-c1cccs1)cn2[C@@H]1O[C@H](CO)[C@@H](O)[C@H]1O | 14
Nc1nc(N)c2c(-c3ccccc3)cn([C@@H]3O[C@H](CO)[C@@H](O)[C@H]3O)c2n1 | 8.53
CSc1ncnc2c1c(I)cn2[C@@H]1O[C@H](CO)[C@@H](O)[C@H]1O | 87.1
CSc1ncnc2c1c(-c1ccccc1)cn2[C@@H]1O[C@H](CO)[C@@H](O)[C@H]1O | > 100
Cc1ncnc2c1c(-c1ccccc1)cn2[C@@H]1O[C@H](CO)[C@@H](O)[C@H]1O | 26.5
